Legend:
hangover symptoms = assay: Subject questionnaire on hangover symptoms and overall feelings after alcohol consumption, glucarate versus placebo; format: in vivo, human; conditions: twenty subjects, questionnaire 12-14 hours after each occasion
Source text: (§1) Twenty subjects, currently taking no form of d-glucarate, were recruited for the evaluation. On two separate occasions (at least 5 days apart) the subjects voluntarily consumed alcoholic beverages. The amount ingested was at their discretion, however it was the exact same about on both occasions and roughly over the same duration (+/−½ hour).
(§2) On the first occasion, the subject was asked to take a placebo, while on the second occasion the subject was asked to take d-glucarate. The subjects were not informed what they were taking on either occasion, or of the difference between the placebo and chemical compound.
(§3) On the second occasion 1000 mg of Potassium Hydrogen Glucarate was administered before alcohol consumption, then 500 mg after alcohol consumption, then 1000 mg 8 hours later.
Referring to FIG. 2, 12-14 hours after each occasion the subjects filled out the questionnaire to reflect each subject's observation of hangover symptoms. A 1 on the scale represents the most severe of symptoms, and a 5 represents neutral feeling or no symptom. The black circle indicates the average on the 20 subjects studied.
Referring to FIG. 3, the last parameter measured was the subjects overall feelings, a rating of 1 being the most unpleasant to a rating of 5 representing the most pleasant of each subject's typical feeling.

[1] = Blood alcohol level (BAC test strip) in human subjects after alcohol consumption, glucarate versus placebo; format: in vivo; conditions: twenty subjects
Source text: as §1, §2
On the first occasion the placebo was administered prior to alcohol ingestion, after alcohol ingestion then 8 hours following ingestion.
A BAC was used to determine the Blood alcohol level after consumption then 8 hours later.
as §3
A BAC test strip was used to determine the Blood alcohol level after consumption then 8 hours later.

With `O=C(O)[C@@H](O)[C@@H](O)[C@H](O)[C@@H](O)C(=O)[O-].[K+]` [glucarate compound, Potassium Hydrogen Glucarate] the “hangover symptoms and overall feelings, average index on scale 1-5” value (hangover symptoms) was “reduced the subjects' hangover tendencies”, the “decrease in the total level of recirculating alcohol relative to a placebo” value ([1]; after rest and a duration of 8 hours, 1000 mg before and 500 mg after alcohol consumption) was 55% and the “reduction in the amount of alcohol recirculating within the blood stream relative to a placebo” value ([1]; immediately after alcohol consumption, 1000 mg before alcohol consumption, oral) was 18%.

From patent US7662863B2, “Therapeutic agent for the use in reducing alcohol intoxication and reducing or eliminating the negative side effects associated with alcohol ingestion” (priority 2003, dated 2010)
